Columns and labels:
Format in all cases: functional, cell-based
[1] = target: Delta-type opioid receptor (Homo sapiens) (UniProt P41143); test: Antagonist activity at human delta opioid receptor expressed in CHO cells assessed as inhibition of DPDPE stimulated [35S]GTPgammaS binding
[2] = target: Kappa-type opioid receptor (Homo sapiens) (UniProt P41145); test: Antagonist activity at human kappa opioid receptor expressed in CHO cells assessed as inhibition of U69,593 stimulated [35S]GTPgammaS binding
[3] = target: Mu-type opioid receptor (Homo sapiens) (UniProt P35372); test: Antagonist activity at human mu opioid receptor expressed in CHO cells assessed as inhibition of DAMGO stimulated [35S]GTPgammaS binding
Chain of Mu-type opioid receptor (Homo sapiens) (P35372 whole entry): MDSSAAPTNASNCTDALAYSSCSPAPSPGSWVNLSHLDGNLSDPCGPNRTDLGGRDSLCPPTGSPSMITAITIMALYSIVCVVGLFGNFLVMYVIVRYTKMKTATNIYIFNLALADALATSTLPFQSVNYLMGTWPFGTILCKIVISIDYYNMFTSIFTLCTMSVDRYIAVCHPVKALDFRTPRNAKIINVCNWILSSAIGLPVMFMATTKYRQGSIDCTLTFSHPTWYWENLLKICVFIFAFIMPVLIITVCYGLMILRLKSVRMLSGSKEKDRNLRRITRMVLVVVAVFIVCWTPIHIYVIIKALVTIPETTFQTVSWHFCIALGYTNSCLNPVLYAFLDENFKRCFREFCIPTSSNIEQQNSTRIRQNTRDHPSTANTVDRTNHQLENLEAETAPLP

Chain of Kappa-type opioid receptor (Homo sapiens) (P41145 whole entry): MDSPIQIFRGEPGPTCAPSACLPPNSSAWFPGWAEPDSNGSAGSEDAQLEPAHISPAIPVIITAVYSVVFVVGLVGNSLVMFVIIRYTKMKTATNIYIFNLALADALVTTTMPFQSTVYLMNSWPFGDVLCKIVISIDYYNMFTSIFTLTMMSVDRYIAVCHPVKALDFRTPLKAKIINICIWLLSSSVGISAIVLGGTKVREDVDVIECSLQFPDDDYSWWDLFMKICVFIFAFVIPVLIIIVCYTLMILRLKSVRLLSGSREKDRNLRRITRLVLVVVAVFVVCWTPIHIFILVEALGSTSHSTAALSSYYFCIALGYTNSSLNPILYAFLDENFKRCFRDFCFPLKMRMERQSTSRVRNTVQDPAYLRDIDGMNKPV
Chain of Delta-type opioid receptor (Homo sapiens) (P41143 whole entry): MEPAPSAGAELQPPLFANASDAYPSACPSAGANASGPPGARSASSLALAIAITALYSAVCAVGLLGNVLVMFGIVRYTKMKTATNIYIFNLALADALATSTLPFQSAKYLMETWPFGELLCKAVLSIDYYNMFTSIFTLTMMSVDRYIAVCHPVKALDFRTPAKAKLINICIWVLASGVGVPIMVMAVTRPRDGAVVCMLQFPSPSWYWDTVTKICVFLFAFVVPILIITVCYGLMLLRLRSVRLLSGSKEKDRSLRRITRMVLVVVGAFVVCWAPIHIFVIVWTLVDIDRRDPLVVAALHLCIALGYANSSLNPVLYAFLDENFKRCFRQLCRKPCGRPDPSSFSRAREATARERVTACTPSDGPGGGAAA

Structure (SMILES)	Ke [1] [nM]	Ke [2] [nM]	Ke [3] [nM]
Oc1cccc(N2CCN(CCCc3ccccc3)CC2)c1	34.3	36.8	8.47
C[C@H]1CN(CCCc2ccccc2)C[C@H](C)N1c1cccc(O)c1	9000	123	1650
C[C@@H]1CN(c2cccc(O)c2)[C@@H](C)CN1CCCc1ccccc1	55.3	4.25	6.14
C[C@@H]1CN(CCCc2ccccc2)CCN1c1cccc(O)c1	6.99	1.57	1.01
C[C@H]1CN(CCCc2ccccc2)CCN1c1cccc(O)c1	13.4	4.09	0.88
C[C@H]1CN(C)CCN1c1cccc(O)c1	> 10000	194	508
C[C@H]1CN(CCCc2ccccc2)CC[C@@]1(C)c1cccc(O)c1	0.9	0.88	0.1
C[C@H]1CN(C)CC[C@@]1(C)c1cccc(O)c1 (relative stereo)			29.3
C[C@H]1CN(c2cccc(O)c2)[C@@H](C)CN1CCCc1ccccc1	23.4	19.5	17.9
C[C@@H]1CN(CCCc2ccccc2)[C@@H](C)CN1c1cccc(O)c1	180	22.9	18
